Results reported in patent publication US12697316B2, “Combination therapy with acetyl-leucine and miglustat” (INTRABIO LTD., priority 2019, dated 2026).

Legend:
Npc1^−/− mice [1] = test: CatWalk automated gait analysis in Npc1−/− mice; format: in vivo, mouse; conditions: for ataxia (lateral displacement from a straight trajectory): 9-week-old Npc1−/− mice treated from 8 weeks of age (1 week), 0.1 g/kg/day in diet; for ataxia (lateral displacement from a straight trajectory) / duty cycle of hind paws / hind paw stand mean: vs untreated Npc1−/−; for magnitude of ataxia: Npc1−/− mice treated from weaning (3 weeks), assessed at 9 weeks (6 weeks of treatment)
Description: BALBc/NPC ^h and Sandhoff mice were bred as heterozygotes to generate affected mice (Npc1^−/−, Hexb^−/−) and controls (Npc^+/+, Hexb^+/+). The mice were housed under non-sterile conditions, with food and water available ad libitum. All experiments were conducted using protocols approved by the UK Home Office Animal Scientific Procedures Act, 1986.
(§1) ADLL and enantiomers (ADLL: Molekula #73891210, ALL: Sigma Aldrich #441511, ADL: Sigma #A0876) were administered as dry admix in powdered mouse diet (PicoLab Rodent Diet 20/5053, LabDiet) at a dose of 0.1 g/kg/day for in vivo studies. Treatment groups for in vivo study consisted of at least 5 mice per group. In vitro studies were conducted with each compound dissolved in PBS to generate a 50 mM stock solution and diluted to a 1 mM working concentration in media (DMEM High Glucose-Gibco #10566016).
Miglustat (Monsanto/Oxford GlycoSciences) was administered as a dry solid mixed with powdered chow (600 mg/kg/day) (see above) alone or in combination with ADLL.
The weight and activity of each mouse was recorded weekly until reaching the humane endpoint (defined as a loss of 1 g body weight within 24 h). Gait analysis was performed using CatWalk 10.5 system (Noldus) according to the manufacturer's instructions and five runs were recorded per animal at each time point. The camera was set to 40 cm below the walkway, the walkway was approximately 4 cm wide, and detection settings set to camera gain 14.05 and green intensity 0.12. Motor function was measured using an accelerating NG Rota Rod for mice (Ugo Basile) starting from 1 rpm to 10 rpm, accelerating every 30 seconds by one rpm. Bar crossing experiments on Sandhoff animals were conducted to measure motor strength and coordination. The apparatus used was modified from published studies. Briefly, a metal bar (1.2 mm width and 26 cm in length) was suspended horizontally between two wooden supports 30 cm high over a cushioned surface and animals were allowed to grasp the center of the bar with forepaws only, the tail was released, and the clock was started. Latency to cross or fall from the bar was scored, with 120 sec, maximum, to termination of each trial. A score was given to each animal between +120 and −120. If crossing time was greater than 0, then score=120−CT; if falling time was greater than 0, the score=FT−120.

Npc1^−/− mice [2] = test: Cerebellar immunohistochemistry (Purkinje cells, CD68 microglia) in Npc1−/− mice; format: in vivo, mouse; conditions: for Purkinje cell survival in any cerebellar lobules / reduction of frequency of CD68 positive activated microglia: compared to Npc1−/− UT; for reduction of frequency of CD68 positive activated microglia: cerebellum
Description: as §1
Biochemical and immunohistochemical analyses. Mice were saline perfused under terminal anaesthesia. Tissues for biochemical analysis were snap-frozen on ice-cold isopentane. For immunofluorescent staining, tissues were perfused with 4% PFA followed by PBS and kept in 4% PFA for 24h and stored in PBS containing 20% sucrose longer term. Brains were cut parasagitally (20 micron sections) and stored in 30% ethylene glycol, 30% glycerol 0.1 M sodium phosphate buffer (pH 7.4) at −20° C. Biochemical analysis was performed on water-homogenised tissues (50 mg/ml) and protein content was determined using a BCA protein assay (Thermo Fisher #23227) according to the manufacturer's instructions.
Immunohistochemistry: Free-floating brain sections in glycerol/ethylene were rinsed 3 times with PBS and blocked with 2% goat serum in 0.3% PBS Triton at room temperature. Sections were stained with primary antibodies; rabbit Calbindin (1:2000) and rat CD68 (1:500) in 2% goat serum in 0.3% PBS for 16 hours at 4° C., followed by washing with 0.3% PBS Triton, then 3 times with PBS. Secondary antibody staining (Alexa Fluor 597 Goat anti rabbit Far Red, Alexa Fluor 488 Goat anti rat) was conducted at room temperature for 2 hours. Samples were washed once with 0.3% PBS Triton, 3 times with PBS and manually mounted on slides. Slides left on the bench overnight to dry the sections followed by application of ProLong Gold (Invitrogen, #P36930).
Image Acquisition and Quantification: Brain sections and CHO cells imaging was performed with a Leica-SP8 confocal microscope in tile imaging mode. Western blot data acquisition was conducted with LiCOR Odyssey Infrared Imaging system model no 9120. Mean fluorescence values, cerebellum diameters and areas, cell quantifications were calculated with Fuji Version 1.0 software.

[3] = test system: Npc1^−/− Chinese Hamster Ovary (CHO) cells; test: Lysotracker Green relative lysosomal volume (FACS) in NPC1 null CHO cells; format: cell-based; conditions: 1 mM
Description: Wild type and NPC1 null Chinese Hamster Ovary (CHO) cells were kindly provided by Chris Wassif (NIH).
as §1
Lysotracker Green and Propidium Iodide Staining of CHO cells: In vitro FACS experiments were performed in order to measure relative acidic compartment volume staining live cells with LysoTracker™ Green DND-26 (Thermo Fisher-L7526) at 250 nM for 10 minutes in PBS at RT, centrifuged at 1200 rpm for 10 min and cells resuspended in FACS buffer (PBS, 1% BSA, 0.1% NaN3 sodium azide). Cells were stained with propidium iodide (20 nM) (Invitrogen-P3566) immediately prior to analysis on the FACS for dead cell discrimination. FACS analysis was performed on 10,000 recorded cells using FACS Canto (Becton Dickinson, (BD)) with BD software.

[4] = Npc1−/− mice treated from 3 weeks, assessed at 8 weeks
[5] = 59 days of age, relative to untreated Npc1−/− littermates

| Structure (SMILES) | ataxia (lateral displacement from a straight trajectory) (Npc1^−/− mice [1]) | motor function assessed using Catwalk (Npc1^−/− mice [1]; [4]) | magnitude of ataxia (Npc1^−/− mice [1]) | Purkinje cell survival in any cerebellar lobules (Npc1^−/− mice [2]; 59 days of age) | long term neuroprotective effects (Npc1^−/− mice [2]; Npc1−/− mice) | reduction of frequency of CD68 positive activated microglia (Npc1^−/− mice [2]; 59 days of age) | reduction of relative lysosomal volume ([3]; 72 h) [%] | duty cycle of hind paws (Npc1^−/− mice [1]; [4]) | hind paw stand mean (Npc1^−/− mice [1]; [4]) | more Purkinje cells in lobule III (Npc1^−/− mice [2]; [5]) [%] | more Purkinje cells in lobules I and II (Npc1^−/− mice [2]; [5]) [%] | reduction of relative lysosomal volume ([3]; 24 h) [%] |
| --- | --- | --- | --- | --- | --- | --- | --- | --- | --- | --- | --- | --- |
| CC(=O)N[C@H](CC(C)C)C(=O)O [ADL, N-acetyl-D-leucine] | significantly reduced ataxia | no significant benefit | significantly reduced | did not significantly improve | did not mediate any long term, neuroprotective effects | did not have a significant impact | 22.3 |  |  |  |  |  |
| CC(=O)NC(CC(C)C)C(=O)O (racemic) [ADLL, N-acetyl-DL-leucine] | significantly reduced ataxia |  | significantly reduced |  |  | did not have a significant impact | 24 | significantly reduced | significantly reduced | 402 | 133 | 16.9 |
| CC(=O)N[C@@H](CC(C)C)C(=O)O [ALL, N-acetyl-L-leucine] | significantly reduced ataxia |  | significantly reduced | did not significantly improve |  | 20% | 22.8 | significantly reduced | significantly reduced |  |  | 16 |
